pKi: −log10 of the molar value.
Biological target: Mcl-1 protein (UniProtKB Q07820) (Homo sapiens (Human), UniProt Q07820)
Assay: Inhibition of Mcl-1 by the fluorescence polarisation assay (Example A, Method A)
Type: binding
Conditions: fluorescence polarization assay
Protocol: The relative binding potency of each compound was determined via Fluorescence Polarisation (FP). The method utilised a Fluorescein labelled ligand (Fluorescein-βAla-Ahx-A-REIGAQLRRMADDLNAQY-OH; MW 2,765) which binds to the Mcl-1 protein (such that Mcl-1 corresponds to the UniProtKB® primary accession number: Q07820) leading to an increased anisotropy measured in milli-polarisation (mP) units using a reader. The addition of a compound which binds competitively to the same site as the ligand will result in a greater proportion of unbound ligand in the system indicated by a decrease in mP units.
An 11 point serial dilution of each compound was prepared in DMSO and 2 μl transferred into flat bottomed, low binding, 384-well plate (final DMSO concentration 5%). 38 μl of buffer containing the Fluorescein labelled ligand (final concentration 1 nM) and Mcl-1 protein (final concentration 5 nM) was then added. Buffer components were 10 mM 4-(2-hydroxyethyl)-1-piperazineethanesulfonic acid [HEPES], 150 mM NaCl, pH 7.4 with the addition of 0.05% Tween 20.
Assay plates were incubated for 2 hours at room temperature before FP was measured on a […] Synergy Neo reader ([…], Cut off 510 nm) and mP units calculated. The binding of increasing doses of test compound was expressed as a percentage reduction in mP compared to a window established between ‘5% DMSO only’ and ‘100% inhibition’ controls. 11-point dose response curves were plotted with XL-Fit software using a 4-Parameter Logistic Model (Sigmoidal Dose-Response Model) and the inhibitory concentrations that gave a 50% reduction in mP (IC50) were determined. The Ki values were determined from the IC50 values according to Cer et al, Nucleic Acids Res, 2009, 37 (WebServer issue): W441-W445. Inhibition constants (Ki) are determined from complete binding inhibition curves (cKi) or from estimated from incomplete binding inhibition curves (eKi) in most cases due to low activity.

Chain of Mcl-1 protein (Q07820 whole entry): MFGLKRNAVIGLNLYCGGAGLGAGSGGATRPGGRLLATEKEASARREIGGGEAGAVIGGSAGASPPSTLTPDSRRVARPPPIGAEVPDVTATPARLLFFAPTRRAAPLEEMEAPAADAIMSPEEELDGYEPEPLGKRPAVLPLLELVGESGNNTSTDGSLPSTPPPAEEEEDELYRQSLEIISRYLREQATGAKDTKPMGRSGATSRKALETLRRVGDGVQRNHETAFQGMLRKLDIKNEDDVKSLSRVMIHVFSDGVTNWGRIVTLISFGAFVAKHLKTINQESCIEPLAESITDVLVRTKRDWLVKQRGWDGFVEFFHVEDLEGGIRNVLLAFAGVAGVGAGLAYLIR

Point of comparison: `O=C(O)[C@]1(Nc2cccc(Cl)c2)CC[C@]2(CC1)C(c1cccc(O)c1)=Cc1ccccc12` [Example 304, (1s,4s)-4-(3-chloroanilino)-2′-(3-hydroxyphenyl)spiro[cyclohexane-1,1′-indene]-4-carboxylic acid], pKi 5.76. Against it:
- Cc1cc(C2=Cc3ccccc3C23CCC(Nc2cccc(Br)c2)(C(=O)O)CC3)ccc1Cl (single isomer, unassigned) [Example 235, 4-(3-bromoanilino)-2′-(4-chloro-3-methylphenyl)spiro[cyclohexane-1,1′-indene]-4-carboxylic acid] — 1.89 log units lower, 3.87
- CCN1c2ccccc2[C@]2(CC[C@](Nc3cccc(Br)c3)(C(=O)O)CC2)C1=O [Example 2, (1r,4r)-4-(3-bromoanilino)-1′-ethyl-2′-oxo-1′,2′-dihydrospiro[cyclohexane-1,3′-indole]-4-carboxylic acid] — 0.64 log units lower, 5.12
- COCCOc1cccc(N[C@]2(C(=O)O)CC[C@@]3(CC2)C(Br)=Cc2ccccc23)n1 [Example 80, (1s,4s)-2′-bromo-4-{[6-(2-methoxyethoxy)pyridin-2-yl]amino}spiro[cyclohexane-1,1′-indene]-4-carboxylic acid] — 0.83 log units lower, 4.93
- COc1ccc2c(c1)[C@]1(CC[C@@](Nc3cccc(Cl)c3)(C(=O)O)CC1)C(c1cccc(Oc3ccccc3)c1)C2 (single isomer, unassigned) [Example 379, (1r,4r)-4-(3-chloroanilino)-6′-methoxy-2′-(3-phenoxyphenyl)-2′,3′-dihydrospiro[cyclohexane-1,1′-indene]-4-carboxylic acid] — 0.25 log units lower, 5.51
- O=C(O)[C@]1(Nc2cccc(Cl)c2)CC[C@@]2(CC1)c1ccccc1CC2CCCOc1cccc2[nH]cnc12 (stereo partly shown) [Example 469, (1r,4r)-2′-{3-[(1H-benzimidazol-4-yl)oxy]propyl}-4-(3-chloroanilino)-2′,3′-dihydrospiro[cyclohexane-1,1′-indene]-4-carboxylic acid] — 0.73 log units higher, 6.49
- O=C(O)C1(Nc2cccc(Br)c2)CCC2(CC1)c1ccccc1CC2c1ccc(OCc2ccccc2)cc1 (stereo not shown) [Example 244, 2′-[4-(benzyloxy)phenyl]-4-(3-bromoanilino)-2′,3′-dihydrospiro[cyclohexane-1,1′-indene]-4-carboxylic acid] — 0.35 log units higher, 6.11
- O=C(O)[C@]1(Nc2cncc(Br)c2)CC[C@]2(CC1)C(Br)=Cc1ccccc12 [Example 79, (1s,4s)-2′-bromo-4-[(5-bromopyridin-3-yl)amino]spiro[cyclohexane-1,1′-indene]-4-carboxylic acid] — 0.48 log units higher, 6.24
- O=C(O)[C@]1(Nc2cccc(Cl)c2)CC[C@@]2(CC1)c1ccccc1C[C@@H]2c1cccc(Cc2ccccc2)c1 [Example 326, (1r,2′R,4R)-2′-(3-benzylphenyl)-4-(3-chloroanilino)-2′,3′-dihydrospiro[cyclohexane-1,1′-indene]-4-carboxylic acid] — 1.05 log units lower, 4.71
- O=C(NCCc1ccncc1)C1=Cc2ccccc2[C@]12CC[C@@](Nc1cccc(Cl)c1)(C(=O)O)CC2 [Example 402, (1s,4s)-4-(3-chloroanilino)-2′-{[2-(pyridin-4-yl)ethyl]carbamoyl}spiro[cyclohexane-1,1′-indene]-4-carboxylic acid] — 1.03 log units lower, 4.73
- COc1ccc2c(c1)[C@]1(CC2)CC[C@@](Nc2cccc(Br)c2)(C(=O)O)CC1 [Example 62, (1s,4r)-4-(3-bromoanilino)-6′-methoxy-2′,3′-dihydrospiro[cyclohexane-1,1′-indene]-4-carboxylic acid] — 1.40 log units lower, 4.36
- O=C(O)[C@]1(Nc2cccc(Cl)c2)CC[C@@]2(CC1)c1ccccc1CC2CCOCc1ccccc1 (stereo partly shown) [Example 396, (1r,4r)-2′-[2-(benzyloxy)ethyl]-4-(3-chloroanilino)-2′,3′-dihydrospiro[cyclohexane-1,1′-indene]-4-carboxylic acid] — 0.73 log units higher, 6.49
- O=C(O)C1(Nc2cccc(Cl)c2)CCC2(C=Cc3cccnc32)CC1 (single isomer, unassigned) [Example 71, 4-(3-chloroanilino)spiro[cyclohexane-1,7′-cyclopenta[b]pyridine]-4-carboxylic acid] — 0.25 log units higher, 6.01
- CC[C@H]1c2ccccc2[C@]2(CC[C@@](Nc3cccc(Cl)c3)(C(=O)O)CC2)[C@H]1C (racemic) [Example 207, (1r,2′RS,3′SR,4r)-4-(3-chloroanilino)-3′-ethyl-2′-methyl-2′,3′-dihydrospiro[cyclohexane-1,1′-indene]-4-carboxylic acid] — 0.43 log units lower, 5.33
- O=C(O)[C@]1(Nc2cccc(O)c2)CC[C@]2(CC1)C(Br)=Cc1ccccc12 [Example 84, (1s,4s)-2′-bromo-4-(3-hydroxyanilino)spiro[cyclohexane-1,1′-indene]-4-carboxylic acid] — 0.62 log units lower, 5.14
- CN1c2ccc(C3CC3)cc2[C@]2(CC[C@](Nc3cccc(Br)c3)(C(=O)O)CC2)C1=O [Example 15, (1r,4r)-4-(3-bromoanilino)-5′-cyclopropyl-1′-methyl-2′-oxo-1′,2′-dihydrospiro[cyclohexane-1,3′-indole]-4-carboxylic acid] — 0.82 log units lower, 4.94
- CN(Cc1ccccc1)CC1=Cc2ccccc2[C@]12CC[C@@](Nc1cccc(Cl)c1)(C(=O)O)CC2 [Example 184, (1s,4s)-2′-{[benzyl(methyl)amino]methyl}-4-(3-chloroanilino)spiro[cyclohexane-1,1′-indene]-4-carboxylic acid] — within 0.2 log units, 5.91
- O=C(O)[C@]1(Nc2cccc(Cl)c2)CC[C@@]2(C=Cc3ncccc32)CC1 [Example 70, (1r,4r)-4-(3-chloroanilino)spiro[cyclohexane-1,5′-cyclopenta[b]pyridine]-4-carboxylic acid] — 1.17 log units lower, 4.59
- O=C(O)[C@]1(Nc2cccc(Cl)c2)CC[C@@]2(CC1)c1ccccc1C[C@@H]2c1ccc2occc2c1 [Example 282, (1r,2′R,4R)-2′-(1-benzofuran-5-yl)-4-(3-chloroanilino)-2′,3′-dihydrospiro[cyclohexane-1,1′-indene]-4-carboxylic acid] — 0.47 log units lower, 5.29
- COc1ccc2c(c1)[C@]1(CC[C@](Nc3cccc(Br)c3)(C(=O)O)CC1)C1(CCCC1)C2 [Example 94, (1s,4s)-4-(3-bromoanilino)-6′-methoxy-3′H-dispiro[cyclohexane-1,1′-indene-2′,1″-cyclopentane]-4-carboxylic acid] — 1.87 log units lower, 3.89
- O=C(O)[C@]1(Nc2cccc(Cl)c2)CC[C@@]2(CC1)c1ccccc1CC2[C@H]1C[C@@H]1COc1ccnc2ccsc12 (single isomer, unassigned) [Example 105, (1r,4r)-4-(3-chloroanilino)-2′-[(1R*,2S*)-2-{[(thieno[3,2-b]pyridin-7-yl)oxy]methyl}cyclopropyl]-2′,3′-dihydrospiro[cyclohexane-1,1′-indene]-4-carboxylic acid] — 0.33 log units lower, 5.43
- O=C(O)[C@]1(Nc2cccc(Cl)c2)CC[C@@]2(CC1)c1ccccc1CC2c1cccc(OCC2CC2)c1 (single isomer, unassigned) [Example 354, (1r,4r)-4-(3-chloroanilino)-2′-[3-(cyclopropylmethoxy)phenyl]-2′,3′-dihydrospiro[cyclohexane-1,1′-indene]-4-carboxylic acid] — 0.64 log units higher, 6.40
- O=C(O)[C@]1(Nc2cccc(Cl)c2)CC[C@]2(CC1)C(C#Cc1ccncc1)=Cc1ccccc12 [Example 173, (1s,4s)-4-(3-chloroanilino)-2′-[(pyridin-4-yl)ethynyl]spiro[cyclohexane-1,1′-indene]-4-carboxylic acid] — 0.58 log units higher, 6.34
- O=C(O)[C@]1(Nc2cccc(Cl)c2)CC[C@]2(CC1)C(C1=CCCC1)=Cc1ccccc12 [Example 277, (1r,4r)-4-(3-chloroanilino)-2′-(cyclopent-1-en-1-yl)spiro[cyclohexane-1,1′-indene]-4-carboxylic acid] — 0.54 log units lower, 5.22
- O=C(O)C1(Nc2cccc(Br)c2)CCC2(CC1)c1ccccc1CC2CCc1ccccc1 (racemic) [Example 201, 4-(3-bromoanilino)-2′-(2-phenylethyl)-2′,3′-dihydrospiro[cyclohexane-1,1′-indene]-4-carboxylic acid] — within 0.2 log units, 5.82
- O=C(O)[C@]1(Nc2cccc(Cl)c2)CC[C@@]2(CC1)c1ccccc1CC2[C@H]1C[C@@H]1COc1ccnc2ccsc12 (single isomer, unassigned) [Example 106, (1r,4r)-4-(3-chloroanilino)-2′-[(1R*,2S*)-2-{[(thieno[3,2-b]pyridin-7-yl)oxy]methyl}cyclopropyl]-2′,3′-dihydrospiro[cyclohexane-1,1′-indene]-4-carboxylic acid] — within 0.2 log units, 5.65
- CC1=C(C)[C@]2(CC[C@](Nc3cccc(Br)c3)(C(=O)O)CC2)c2ccccc21 [Example 202, (1r,4r)-4-(3-bromoanilino)-2′,3′-dimethylspiro[cyclohexane-1,1′-indene]-4-carboxylic acid] — 0.76 log units higher, 6.52
- O=C(O)[C@]1(Nc2cccc(Br)c2)CC[C@]2(CC1)c1ccccc1CC2CCc1ccccn1 (mixture of isomers) [Example 176, (1s,4s)-4-(3-bromoanilino)-2′-[2-(pyridin-2-yl)ethyl]-2′,3′-dihydrospiro[cyclohexane-1,1′-indene]-4-carboxylic acid] — 0.83 log units lower, 4.93

From US20240150293A1, “SPIROCYCLOHEXANE DERIVATIVES, PHARMACEUTICAL COMPOSITIONS CONTAINING THEM AND THEIR USES AS ANTI-APOPTOTIC INHIBITORS” (LES LABORATOIRES SERVIER, priority 2021, published 2024)
